Molecules are shown by their SMILES.

The experiment concerns H1N1 (influenza A/New Caledonia/20/99). The experiment in a line: Antiviral effect on A549 cells infected with H1N1. To be noted: Influenza A virus, MOI 0.1, 48 h post-infection, MUNANA neuraminidase readout. It is filed as cell-based, H1N1 A/New Caledonia/20/99 virus. The method, then: The antiviral effect of the compounds of the invention have been tested on A549 cell lines infected with H1N1 (influenza A/New Caledonia/20/99).
Human A549 cells (80,000 cells/well in a 96 well plate) were treated with a range of concentration of test compounds and immediately infected by H1N1 A/New Caledonia/20/99 virus (clinical isolate) at MOI of 0.1 in DMEM/1% Penicillin/streptomycin supplemented with […] TPCK trypsin (Sigma) and incubated at 37° C. in 5% CO2. 48 h post-infection, supernatants (25 μl) were collected and transferred into a 96-well black flat-bottom plate, mixed with 25 μl PBS with Ca++/Mg++ (Thermo Fisher) and 50 μl of 2′-(4-Methylumbelliferyl)-ax-D-N-acetylneuraminic acid sodium salt hydrate stock-solution (20 μM, MUNANA, Sigma). Plates were incubated 1h at 37° C. and reaction is stopped by adding 100 μl of Stop Solution (glycine 0.1 M pH10.7/25% ethanol). The amount of fluorescent product released by MUNANA hydrolysis (4-MU) was measured in a Tecan spectrophotometer with excitation and emission wavelengths of 365 and 450 nm respectively.
As to `Cc1sc(NC(=O)c2ccccc2)c(C(=O)O)c1-c1ccc(Cl)cc1` [Compound #4, 2-Benzamido-4-(4-chlorophenyl)-5-methyl-thiophene-3-carboxylic acid], the half-maximal inhibitory concentration (IC50) came to 0.17 µM.

Compound `Cc1sc(NC(=O)c2ccc(OC(F)F)cc2)c(C(=O)O)c1-c1ccc(Cl)cc1` [Compound #5, 4-(4-Chlorophenyl)-2-[[4-(difluoromethoxy)benzoyl]amino]-5-methyl-thiophene-3-carboxylic acid] displayed an IC50 of 0.26 µM.

Take `O=C(Nc1sc(Cl)c(-c2ccc(Cl)c(F)c2)c1C(=O)O)c1ccccc1` [Compound #6, 2-Benzamido-5-chloro-4-(4-chloro-3-fluoro-phenyl)thiophene-3-carboxylic acid]: half-maximal inhibition (IC50) required 0.247 µM.

`O=C(Nc1scc(C2CCCC2)c1C(=O)O)c1ccccc1` [Compound #10, 2-Benzamido-4-cyclopentyl-thiophene-3-carboxylic acid] returned an IC50 of 0.205 µM.

In the case of `O=C(Nc1scc(C2CCCCC2)c1C(=O)O)c1ccc(OC(F)F)cc1` [Compound #11, 4-Cyclohexyl-2-[[4-(difluoromethoxy)benzoyl]amino]thiophene-3-carboxylic acid], the midpoint of inhibition, the IC50, lay at 0.412 µM.

Take `O=C(Nc1sc(Cl)c(C2CCCCC2)c1C(=O)O)c1ccccc1` [Compound #12, 2-Benzamido-5-chloro-4-cyclohexyl-thiophene-3-carboxylic acid]: 0.245 µM corresponded to half-maximal inhibition (IC50).

In turn, `O=C(Nc1sc(Cl)c(C2CCCCC2)c1C(=O)O)c1ccc(OC(F)F)cc1` [Compound #13, 5-Chloro-4-cyclohexyl-2-[[4-(difluoromethoxy)benzoyl]amino]thiophene-3-carboxylic acid] had an IC50 of 0.37 µM.

On to `Cc1ccccc1C(=O)Nc1sc(Cl)c(C2CCCCC2)c1C(=O)O` [Compound #14, 5-Chloro-4-cyclohexyl-2-[(2-methylbenzoyl)amino]thiophene-3-carboxylic acid], for which the IC50 worked out at 0.5 µM.

For `O=C(Nc1sc(Cl)c(C2CCCCC2)c1C(=O)O)c1ccc(N2CCOCC2)cc1` [Compound #15, 5-Chloro-4-cyclohexyl-2-[(4-morpholinobenzoyl)amino]thiophene-3-carboxylic acid], the half-inhibitory concentration (IC50) turned out to be 0.225 µM.

As for `O=C(Nc1scc(-c2ccc(C(F)(F)F)cc2)c1C(=O)O)c1ccccc1` [Compound #20, 2-Benzamido-4-[4-(trifluoromethyl)phenyl]thiophene-3-carboxylic acid], the IC50 turned out to be 0.31 µM.

`Cc1ccc(-c2csc(NC(=O)c3ccccc3)c2C(=O)O)cc1` [Compound #21, 2-Benzamido-4-(p-tolyl)thiophene-3-carboxylic acid] showed an IC50 of 0.61 µM.

For the compound `Cc1ccc(-c2csc(NC(=O)c3ccccc3)c2C(=O)O)cc1C` [Compound #22, 2-Benzamido-4-(3,4-dimethylphenyl)thiophene-3-carboxylic acid], it took 0.55 µM to reach half-maximal inhibition (IC50).

The compound `Cc1ccc(-c2c(Cl)sc(NC(=O)c3ccccc3)c2C(=O)O)cc1C` [Compound #23, 2-Benzamido-5-chloro-4-(3,4-dimethylphenyl)thiophene-3-carboxylic acid] had an IC50 of 0.42 µM.

`Cc1ccc(-c2c(Cl)sc(NC(=O)c3ccccc3)c2C(=O)O)cc1` [Compound #24, 2-Benzamido-5-chloro-4-(p-tolyl)thiophene-3-carboxylic acid]: half-maximal inhibition (IC50) required 0.35 µM.

Compound `COc1ccc(C(=O)Nc2scc(C3CCCCC3)c2C(=O)O)cc1OC` [Compound #25, 4-Cyclohexyl-2-[(3,4-dimethoxybenzoyl)amino]thiophene-3-carboxylic acid] yielded an IC50 of 0.729 µM.

Consider `Cc1sc(NC(=O)c2ccccc2)c(C(=O)O)c1C1CCCCC1` [Compound #27, 2-Benzamido-4-cyclohexyl-5-methyl-thiophene-3-carboxylic acid], for which the IC50 was determined as 0.88 µM.

`O=C(Nc1scc(-c2ccccc2)c1C(=O)O)c1ccc(OC(F)F)cc1` [Compound #28, 2-[[4-(Difluoromethoxy)benzoyl]amino]-4-phenyl-thiophene-3-carboxylic acid] registered an IC50 of 1.27 µM.

Compound `O=C(Nc1scc(C2CCCCC2)c1C(=O)O)c1ccc(N2CCOCC2)cc1` [Compound #29, 4-Cyclohexyl-2-[(4-morpholinobenzoyl)amino]thiophene-3-carboxylic acid] returned an IC50 of 1.27 µM.

Turning to `Cc1sc(NC(=O)c2ccc(OC(F)F)cc2)c(C(=O)O)c1-c1ccccc1` [Compound #30, 2-[[4-(Difluoromethoxy)benzoyl]amino]-5-methyl-4-phenyl-thiophene-3-carboxylic acid], the IC50 turned out to be 1.37 µM.

In the case of `O=C(Nc1sc(Cl)c(-c2ccccc2)c1C(=O)O)c1ccc(OC(F)F)cc1` [Compound #31, 5-Chloro-2-[[4-(difluoromethoxy)benzoyl]amino]-4-phenyl-thiophene-3-carboxylic acid], the IC50 stood at 1.37 µM.

Compound `CC(C)(C)c1csc(NC(=O)c2ccccc2)c1C(=O)O` [Compound #32, 2-Benzamido-4-tert-butyl-thiophene-3-carboxylic acid] had an IC50 of 1.47 µM.

Compound `O=C(Nc1sc(Cl)c(-c2ccccc2)c1C(=O)O)c1ccccc1` [Compound #33, 2-Benzamido-5-chloro-4-phenyl-thiophene-3-carboxylic acid] came in with an IC50 of 1.47 µM.

`Cc1sc(NC(=O)c2ccccc2)c(C(=O)O)c1-c1ccccc1` [Compound #34, 2-Benzamido-5-methyl-4-phenyl-thiophene-3-carboxylic acid] registered an IC50 of 1.48 µM.

With `O=C(Nc1scc(C2CC(F)(F)C2)c1C(=O)O)c1ccccc1` [Compound #35, 2-Benzamido-4-(3,3-difluorocyclobutyl)thiophene-3-carboxylic acid], half-maximal inhibition (IC50) was put at 1.67 µM.

Turning to `O=C(Nc1scc(-c2cccc(Cl)c2)c1C(=O)O)c1ccccc1` [Compound #36, 2-Benzamido-4-(3-chlorophenyl)thiophene-3-carboxylic acid], the IC50 turned out to be 1.67 µM.

In the case of `O=C(Nc1scc(C2C3CCCCC32)c1C(=O)O)c1ccccc1` (stereo not shown) [Compound #37, 2-Benzamido-4-norcaran-7-yl-thiophene-3-carboxylic acid], the IC50 was determined as 1.87 µM.

`COc1ccc(-c2csc(NC(=O)c3ccccc3)c2C(=O)O)cc1` [Compound #38, 2-Benzamido-4-(4-methoxyphenyl)thiophene-3-carboxylic acid] yielded an IC50 of 1.87 µM.

Take `CC1(C)C(c2csc(NC(=O)c3ccccc3)c2C(=O)O)C1(C)C` [Compound #39, 2-Benzamido-4-(2,2,3,3-tetramethylcyclopropyl)thiophene-3-carboxylic acid]: the IC50 worked out at 2.37 µM.

In the case of `O=C(Nc1sc(C2CCCCC2)cc1C(=O)O)c1ccc(OC(F)F)cc1` [Compound #41, 5-Cyclohexyl-2-[[4-(difluoromethoxy)benzoyl]amino]thiophene-3-carboxylic acid], the IC50 was 2.57 µM.

`O=C(Nc1scc(-c2ccccc2)c1C(=O)O)c1ccccc1` [Compound #43, 2-Benzamido-4-phenyl-thiophene-3-carboxylic acid] displayed an IC50 of 5.95 µM.

As to `O=C(Nc1scc(-c2ccccc2Cl)c1C(=O)O)c1ccccc1` [Compound #44, 2-Benzamido-4-(2-chlorophenyl)thiophene-3-carboxylic acid], the IC50 was 6.65 µM.

In turn, `Cc1ccccc1C(=O)Nc1sc(-c2ccccc2)cc1C(=O)O` [Compound #45, 2-[(2-Methylbenzoyl)amino]-5-phenyl-thiophene-3-carboxylic acid] showed an IC50 of 8.55 µM.

`COc1ccc(C(=O)Nc2scc(-c3ccccc3)c2C(=O)O)cc1OC` [Compound #46, 2-[(3,4-Dimethoxybenzoyl)amino]-4-phenyl-thiophene-3-carboxylic acid] had an IC50 of 9.65 µM.

In turn, `CC(C)(C)[C@H]1CC[C@H](c2csc(NC(=O)c3ccccc3)c2C(=O)O)CC1` [Compound #48, 2-Benzamido-4-(trans-4-tert-butylcyclohexyl)thiophene-3-carboxylic acid] came in with an IC50 of 0.35 µM.

Compound `O=C(Nc1sc(Cl)c(-c2ccc(C(F)(F)F)cc2)c1C(=O)O)c1ccccc1` [Compound #50, 2-Benzamido-5-chloro-4-[4-(trifluoromethyl)phenyl]thiophene-3-carboxylic acid] returned an IC50 of 0.32 µM.

As for `CC(C)(C)[C@H]1CC[C@@H](c2csc(NC(=O)c3ccccc3)c2C(=O)O)CC1` [Compound #54, 2-Benzamido-4-(cis-4-tert-butylcyclohexyl)thiophene-3-carboxylic acid], half-maximal inhibition (IC50) was put at 0.46 µM.

Compound `O=C(Nc1scc(C2CCCC2)c1C(=O)O)c1ccc(N2CCOCC2)cc1` [Compound #59, 4-Cyclopentyl-2-[(4-morpholinobenzoyl)amino]thiophene-3-carboxylic acid] registered an IC50 of 0.075 µM.

Take `O=C(Nc1scc(C2CCCC2)c1C(=O)O)c1ccc(NC2CCOCC2)cc1` [Compound #60, 4-Cyclopentyl-2-[[4-(tetrahydropyran-4-ylamino)benzoyl]amino]thiophene-3-carboxylic acid]: half-maximal inhibition (IC50) required 0.047 µM.

Compound `COCCNc1ccc(C(=O)Nc2scc(C3CCCC3)c2C(=O)O)cc1` [Compound #61, 4-Cyclopentyl-2-[[4-(2-methoxyethylamino)benzoyl]amino]thiophene-3-carboxylic acid] registered an IC50 of 0.1 µM.

`COC1CN(c2ccc(C(=O)Nc3scc(C4CCCC4)c3C(=O)O)cc2)C1` [Compound #62, 4-Cyclopentyl-2-[[4-(3-methoxyazetidin-1-yl)benzoyl]amino]thiophene-3-carboxylic acid] displayed an IC50 of 0.052 µM.

In general, IC50 refers to the midpoint of a concentration-inhibition curve. Read a low IC50 as greater potency in that assay.

The values are drawn from US11840527B2, “Non-fused thiophene derivatives and their uses” (ENYO PHARMA, priority 2018, dated 2023).
